From patent publication US6528510B1, “HIV protease inhibitors” (Warner-Lambert Company, priority 1998, dated 2003)
pEC50, pKi: −log10 of the molar value. Where two headings read alike, the source gives them in different places.

Assays:
[1] = Cellular toxicity in uninfected CEM cells, XTT (TC50); settings: human, uninfected CEM cells (lymphocyte derived)
Description: (§1) Compound concentrations were 0.32, 1, 3.2, 10, 32, and 100 uM.

[2] = system: HIV infected lymphocyte derived CEM cells; test: Cellular infection assay in CEM cells, XTT cytopathic procedure (EC50); settings: for TI (therapeutic index, TC50/EC50): CEM cells; for pEC50: Human immunodeficiency virus 1, CCRF-CEM, read-out: Antiviral Efficacy EC50
Description: as §1

[3] = target: T1, Recombinant HIV-1 protease (Human immunodeficiency virus type 1 group M subtype B, UniProt P04585); test: HIV protease assay (Ki determination, HPLC readout of substrate III cleavage); assay type: biochemical
T1 construct: Recombinant HIV-1 protease (>96% purity); purchased Bachem Bioscience, Inc. (King of Prussia, Pa.)
Description: Recombinant HIV-1 protease (>96% purity) and HIV protease substrate III (the undecapeptide H-His-Lys-Ala-Arg-Val-Leu-Nph-Glu-Ala-Nle-Ser-NH2, 97% purity) were purchased from Bachem Bioscience, Inc. (King of Prussia, Pa.).
The methods employed follow the procedures of Tummino, et al., Archives of Biochemistry and Biophysics, 1995;316:523). […] (total volume, […]). […] The final inhibitor concentrations used were 0 (0.1, 0.2, in some experiments), 0.5, 1, 2, 5, 10, 20, 50, and 100 μM. The solution was mixed, incubated for 5 minutes and the reaction quenched by addition of trifluoracetic acid, 2% final. The (leu-p-nitro-phe) bond of the substrate is cleaved by the enzyme and substrate arid products separated by reverse-phase HPLC. Absorbance was measured at 220 nm, peak areas determined, and percentage conversion to product used to calculate percentage control (=[% conversion (+inhibitor)/% conversion (−inhibitor)]×100).

[4] = recombinant HIV-1 protease, read-out: Inhib of HIV Protease KI

Which results are given for `Cc1cc(SC2=C(O)CC(CCc3cccs3)(C(C)C)OC2=O)c(C(C)(C)C)cc1CO` (centres unmarked) [Example 8, 3-(2-tert-Butyl-4-hydroxymethyl-5-methyl-phenylsulfanyl)-4-hydroxy-6-isopropyl-6-(2-thiophen-2-yl-ethyl)-5,6-dihydro-pyran-2-one]?
CC50 [1]: 80500 nM; TI (therapeutic index, TC50/EC50) [2]: 161; pEC50 [2]: 6.30; pKi [3, 4]: 9.46

Which CC50 [1] does the source give for `CC(C)[C@]1(CCc2ccccc2)CC(O)=C(Sc2cc3sc(NS(C)(=O)=O)nc3cc2C(C)(C)C)C(=O)O1` [Example 79, (S)-N-[5-tert-Butyl-6-(4-hydroxy-6-isopropyl-2-oxo-6-phenethyl-5,6-dihydro-2H-pyran-3-ylsulfanyl)-benzothiazol-2-yl]-methanesulfonamide] here?
Its CC50 is 125000 nM.

What about the “TI (therapeutic index, TC50/EC50)” value [2] of the same compound?
Its value is 56.

And the pEC50 [2]?
The pEC50 was 5.66.

What about the pKi [3] of the same compound?
Its pKi is 8.68.

With `Cc1cc(SC2=C(O)CC(CCc3cccnc3)(C(C)C)OC2=O)c(C(C)(C)C)cc1CO` (centres unmarked) [Example 2, 3-(2-tert-Butyl-4-hydroxymethyl-5-methyl-phenylsulfanyl)4-hydroxy-6-isopropyl-6-(2-pyridin-3-yl-ethyl)-5,6-dihydro-pyran-2-one] as the compound, how does the pKi [3, 4] read?
The pKi was 9.05.

For `Cc1cc(SC2=C(O)CC(CCc3csc(N)n3)(C(C)C)OC2=O)c(C(C)(C)C)cc1CO` (racemic) [Example 89, 6-[2-(2-Amino-thiazol-4-yl)-ethyl]-3-(2-tert-butyl-4-hydroxymethyl-5-methyl-phenylsulfanyl)-4-hydroxy-6-isopropyl-5,6-dihydro-pyran-2-one], which CC50 [1] is on record?
Its CC50 is over 200000 nM.

And the “TI (therapeutic index, TC50/EC50)” value [2]?
Its value is over 57.

What about the pEC50 [2] of the same compound?
Its pEC50 is 5.46.

And the pKi [3]?
Its pKi is 9.02.

For `Cc1cc(SC2=C(O)CC(CCC3CCCO3)(C(C)C)OC2=O)c(C(C)(C)C)cc1N` (racemic) [Example 56, 3-(4-Amino-2-tert-butyl-5-methyl-phenylsulfanyl)-4-hydroxy-6-isopropyl-6-[2-(tetrahydro-furan-2-yl)-ethyl]-5,6-dihydro-pyran-2-one], which CC50 [1] is on record?
Its CC50 is 210000 nM.

And the “TI (therapeutic index, TC50/EC50)” value [2]?
Its value is 21.

And the pEC50 [2]?
The pEC50 was 5.00.

And the pKi [3]?
Its pKi is 7.96.

Which results are given for `Cc1cc(SC2=C(O)CC(CCc3ccco3)(C(C)C)OC2=O)c(C(C)(C)C)cc1CO` (centres unmarked) [Example 5, 3-(2-tert-Butyl-4-hydroxymethyl-5-methyl-phenylsulfanyl)-6-(2-furan-2-yl-ethyl)-4-hydroxy-6-isopropyl-5,6-dihydro-pyran-2-one]?
CC50 [1]: 190000 nM; TI (therapeutic index, TC50/EC50) [2]: 253; pEC50 [2]: 6.12; pKi [3, 4]: 9.11

Which CC50 [1] does the source give for `CC(C)C1(CCc2ccccc2CO)CC(O)=C(Sc2sc3ccccc3c2C(C)(C)C)C(=O)O1` (centres unmarked) [Example 22, 3-(3-tert-Butyl-benzo[b]thiophen-2-yl-sulfanyl)-4-hydroxy-6-[2-(2-hydroxymethyl-phenyl)-ethyl]-6-isopropyl-5,6-dihydro-pyran-2-one] here?
The CC50 was 66000 nM.

What about the “TI (therapeutic index, TC50/EC50)” value [2] of the same compound?
Its value is 43.

And the pEC50 [2]?
Its pEC50 is 5.82.

What about the pKi [3, 4] of the same compound?
The pKi was 9.07.

For `CC(C)c1cc2ncsc2cc1SC1=C(O)C[C@@](CCc2ccc(O)cc2)(C(C)C)OC1=O` [Example 48, (S)-4-Hydroxy-6-[2-(4-hydroxy-phenyl)-ethyl]-6-isopropyl-3-(5-isopropyl-benzothiazol-6-ylsulfanyl)-5,6-dihydro-pyran-2-one], which CC50 [1] is on record?
Its CC50 is 29000 nM.

What about the “TI (therapeutic index, TC50/EC50)” value [2] of the same compound?
The value was 78.

What about the pEC50 [2] of the same compound?
Its pEC50 is 6.43.

What about the pKi [3] of the same compound?
Its pKi is 9.40.

Which CC50 [1] does the source give for `Cc1cc(SC2=C(O)C[C@@](CCc3ccc(O)cc3)(C(C)C)OC2=O)c(C(C)C)c2sc(N)nc12` [Example 18, (S)-3-(2-Amino-7-isopropyl-4-methyl-benzothiazol-6-ylsulfanyl)-4-hydroxy-6-[2-(4-hydroxyl-phenyl)-ethyl]-6-isopropyl-5,6-dihydro-pyran-2-one] here?
Its CC50 is 117000 nM.

And the “TI (therapeutic index, TC50/EC50)” value [2]?
The value was 105.

What about the pEC50 [2] of the same compound?
The pEC50 was 5.96.

Which results are given for `Cc1cc(SC2=C(O)CC(CCc3ccsc3CO)(C(C)C)OC2=O)c(C(C)(C)C)cc1N` (centres unmarked) [Example 11, 3-(4-Amino-2-tert-butyl-5-methyl-phenylsulfanyl)-4-hydroxy-6-[2-(2-hydroxymethyl-thiophen-3-yl)-ethyl]-6-isopropyl-5,6-dihydro-pyran-2-one]?
CC50 [1]: 133000 nM; TI (therapeutic index, TC50/EC50) [2]: 458; pEC50 [2]: 6.54; pKi [3, 4]: 9.64

With `Cc1cc(SC2=C(O)CC(CCc3ccc(CO)s3)(C(C)C)OC2=O)c(C(C)(C)C)cc1O` (racemic) [Example 37, 3-(2-tert-Butyl-4-hydroxy-5-methyl-phenylsulfanyl)-4-hydroxy-6-[2-(5-hydroxymethyl-thiophen-2-yl)-ethyl]-6-isopropyl-5,6-dihydro-pyran-2-one] as the compound, how does the CC50 [1] read?
Its CC50 is 100000 nM.

What about the “TI (therapeutic index, TC50/EC50)” value [2] of the same compound?
The value was 24.

What about the pEC50 [2] of the same compound?
Its pEC50 is 5.38.

What about the pKi [3] of the same compound?
The pKi was 9.43.

Which CC50 [1] does the source give for `Cc1cc(SC2=C(O)CC(CCc3ccsc3)(C(C)C)OC2=O)c(C(C)(C)C)cc1N` (racemic) [Example 35, 3-(4-Amino-2-tert-butyl-5-methyl-phenylsulfanyl)-4-hydroxy-6-isopropyl-6-(2-thiophen-3-yl-ethyl)-5,6-dihydro-pyran-2-one] here?
Its CC50 is 72000 nM.

And the “TI (therapeutic index, TC50/EC50)” value [2]?
Its value is 48.

What about the pEC50 [2] of the same compound?
Its pEC50 is 5.82.

What about the pKi [3] of the same compound?
Its pKi is 9.06.

Which CC50 [1] does the source give for `Cc1cc(SC2=C(O)CC(CCc3csc(CO)c3)(C(C)C)OC2=O)c(C(C)(C)C)cc1CO` (centres unmarked) [Example 9] here?
The CC50 was 210000 nM.

What about the “TI (therapeutic index, TC50/EC50)” value [2] of the same compound?
Its value is 117.

What about the pEC50 [2] of the same compound?
Its pEC50 is 5.74.

What about the pKi [3, 4] of the same compound?
Its pKi is 9.72.

Which CC50 [1] does the source give for `Cc1c(F)cccc1CCC1(C(C)C)CC(O)=C(Sc2cc3sc(N)nc3cc2C(C)(C)C)C(=O)O1` (racemic) [Example 84, 3-(2-Amino-5-tert-butyl-benzothiazol-6-ylsulfanyl)-6-[2-(3-fluoro-2-methyl-phenyl)-ethyl]-4-hydroxy-6-isopropyl-5,6-dihydro-pyran-2-one] here?
The CC50 was 93000 nM.

What about the “TI (therapeutic index, TC50/EC50)” value [2] of the same compound?
The value was 198.

What about the pEC50 [2] of the same compound?
Its pEC50 is 6.33.

And the pKi [3]?
Its pKi is 9.10.

Which results are given for `Cc1cc(SC2=C(O)CC(CCc3cc[nH]n3)(C(C)C)OC2=O)c(C(C)(C)C)cc1CO` (racemic) [Example 40, 3-(2-tert-Butyl-4-hydroxymethyl-5-methyl-phenylsulfanyl)-4-hydroxy-6-isopropyl-6-[2-(1H-pyrazol-3-yl)-ethyl]-5,6-dihydro-pyran-2-one]?
CC50 [1]: > 320000 nM; TI (therapeutic index, TC50/EC50) [2]: >57; pEC50 [2]: 5.25; pKi [3]: 9.55

What does the source list for `Cc1cc(SC2=C(O)CC(CCc3ccsc3)(C(C)C)OC2=O)c(C(C)(C)C)cc1NS(=O)(=O)c1ccc(C(F)(F)F)cn1` (racemic) [Example 59, 5-Trifluoromethyl-pyridine-2-sulfonic acid {5-tert-butyl-4-[4-hydroxy-6-isopropyl-2-oxo-6-(2-thiophen-3-yl-ethyl)-5,6-dihydro-2H-pyran-3-ylsulfanyl]-2-methyl-phenyl}-amide]?
CC50 [1]: 66000 nM; TI (therapeutic index, TC50/EC50) [2]: 110; pEC50 [2]: 6.22; pKi [3]: 10.10

Which results are given for `Cc1cc(SC2=C(O)CC(CCc3ccc4[nH]ccc4c3)(C(C)C)OC2=O)c(C(C)(C)C)cc1CO` (racemic) [Example 61, 3-(2-tert-Butyl-4-hydroxymethyl-5-methyl-phenylsulfanyl)-4-hydroxy-6-[2-(1H-indol-5-yl)-ethyl]-6-isopropyl-5,6-dihydro-pyran-2-one]?
CC50 [1]: 46000 nM; TI (therapeutic index, TC50/EC50) [2]: 68; pEC50 [2]: 6.17; pKi [3]: 9.01

Which results are given for `Cc1cc(SC2=C(O)CC(CCc3csc(C(C)C)n3)(C(C)C)OC2=O)c(C(C)(C)C)cc1CO` (racemic) [Example 32, 3-(2-tert-Butyl-4-hydroxymethyl-5-methyl-phenylsulfanyl)-4-hydroxy-6-isopropyl-6-[2-(2-isopropyl-thiazol-4-yl)-ethyl]-5,6-dihydro-pyran-2-one]?
CC50 [1]: 91000 nM; TI (therapeutic index, TC50/EC50) [2]: 4; pEC50 [2]: 4.64; pKi [3]: 8.80

Which CC50 [1] does the source give for `Cc1cc(SC2=C(O)CC(CCc3scnc3C(C)C)(C(C)C)OC2=O)c(C(C)(C)C)cc1CO` (racemic) [Example 33, 3-(2-tert-Butyl-4-hydroxymethyl-5-methyl-phenylsulfanyl)-4-hydroxy-6-isopropyl-6-[2-(4-isopropyl-thiazol-5-yl)-ethyl]-5,6-dihydro-pyran-2-one] here?
The CC50 was 101000 nM.

And the “TI (therapeutic index, TC50/EC50)” value [2]?
The value was 72.

What about the pEC50 [2] of the same compound?
Its pEC50 is 5.85.

Which CC50 [1] does the source give for `Cc1cc(SC2=C(O)C[C@@](CCc3ccccc3)(C(C)C)OC2=O)c(C(C)C)c2sc(N)nc12` [Example 17, (S)-3-(2-Amino-7-isopropyl-4-methyl-benzothiazol-6-yl-sulfanyl)-4-hydroxy-6-isopropyl-6-phenethyl-5,6-dihydro-pyran-2-one] here?
The CC50 was 42000 nM.

And the “TI (therapeutic index, TC50/EC50)” value [2]?
The value was 16.

And the pEC50 [2]?
The pEC50 was 5.57.

What does the source list for `Cc1cc(SC2=C(O)CC(CCc3scnc3C)(C(C)C)OC2=O)c(C(C)(C)C)cc1CO` (centres unmarked) [Example 24, 3-(2-tert-Butyl-4-hydroxymethyl-5-methyl-phenylsulfanyl)-4-hydroxy-6-isopropyl-6-[2-(4-methyl-thiazol-5-yl)-ethyl]-5,6-dihydro-pyran-2-one]?
CC50 [1]: 164000 nM; TI (therapeutic index, TC50/EC50) [2]: 443; pEC50 [2]: 6.43

Which CC50 [1] does the source give for `Cc1cc(SC2=C(O)CC(CCc3cncnc3)(C(C)C)OC2=O)c(C(C)(C)C)cc1CO` (racemic) [Example 42, 3-(2-tert-Butyl-4-hydroxymethyl-5-methyl-phenylsulfanyl)-4-hydroxy-6-isopropyl-6-(2-pyrimidin-5-yl-ethyl)-5,6-dihydro-pyran-2-one] here?
Its CC50 is over 200000 nM.

What about the “TI (therapeutic index, TC50/EC50)” value [2] of the same compound?
Its value is over 159.

What about the pEC50 [2] of the same compound?
Its pEC50 is 5.89.
